Results reported in the supplement of paper PMC10307832.

Columns and labels:
Assay in all cases: relative viability (nuclei count vs DMSO), 5 days (fraction); higher = more cells survive
AZD5582 + OSI-027 = compound: C[C@@H](C(=O)N[C@@H](C1CCCCC1)C(=O)N2CCC[C@H]2C(=O)N[C@@H]3[C@@H](CC4=CC=CC=C34)OCC#CC#CCO[C@@H]5CC6=CC=CC=C6[C@@H]5NC(=O)[C@@H]7CCCN7C(=O)[C@H](C8CCCCC8)NC(=O)[C@H](C)NC)NC [AZD5582] + COc1cccc2cc(-c3nc([C@H]4CC[C@H](C(=O)O)CC4)n4ncnc(N)c34)[nH]c12 [OSI-027] (partner 0.5 µM)
Method in brief: (§1)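 Relative viability was taken as the ratio of nuclei in treated wells to nuclei in vehicle wells. Lung cancer cell lines in 1536-well plates received compounds by pin tool one day after seeding, either one drug alone or a fixed anchor-drug dose plus five library-drug doses (not always all listed) in √10 steps. Nuclei were counted on 4× images after 5 days of treatment, and values are medians of duplicate plates.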

AZD5582 + Tozasertib = compound: C[C@@H](C(=O)N[C@@H](C1CCCCC1)C(=O)N2CCC[C@H]2C(=O)N[C@@H]3[C@@H](CC4=CC=CC=C34)OCC#CC#CCO[C@@H]5CC6=CC=CC=C6[C@@H]5NC(=O)[C@@H]7CCCN7C(=O)[C@H](C8CCCCC8)NC(=O)[C@H](C)NC)NC [AZD5582] + Cc1cc(Nc2cc(N3CCN(C)CC3)nc(Sc3ccc(NC(=O)C4CC4)cc3)n2)n[nH]1 [Tozasertib] (partner 0.1 µM)
Method in brief: as §1

AZD5582 + AZD7762 = compound: C[C@@H](C(=O)N[C@@H](C1CCCCC1)C(=O)N2CCC[C@H]2C(=O)N[C@@H]3[C@@H](CC4=CC=CC=C34)OCC#CC#CCO[C@@H]5CC6=CC=CC=C6[C@@H]5NC(=O)[C@@H]7CCCN7C(=O)[C@H](C8CCCCC8)NC(=O)[C@H](C)NC)NC [AZD5582] + NC(=O)Nc1cc(-c2cccc(F)c2)sc1C(=O)N[C@H]1CCCNC1 [AZD7762] (partner 0.2 µM)
Method in brief: as §1

Temozolomide + Alpelisib = compound: Cn1nnc2c(C(N)=O)ncn2c1=O [Temozolomide] + Cc1nc(NC(=O)N2CCC[C@H]2C(N)=O)sc1-c1ccnc(C(C)(C)C(F)(F)F)c1 [Alpelisib] (partner 2 µM)
Method in brief: as §1

| Cell Line | relative viability (AZD5582 + OSI-027; first compound 0.001581 µM) | relative viability (AZD5582 + OSI-027; first compound 0.005 µM) | relative viability (AZD5582 + OSI-027; first compound 0.05 µM) | relative viability (AZD5582 + Tozasertib; first compound 0.001581 µM) | relative viability (AZD5582 + Tozasertib; first compound 0.005 µM) | relative viability (AZD5582 + Tozasertib; first compound 0.05 µM) | relative viability (AZD5582 + AZD7762; first compound 0.001581 µM) | relative viability (AZD5582 + AZD7762; first compound 0.005 µM) | relative viability (AZD5582 + AZD7762; first compound 0.01581 µM) | relative viability (AZD5582 + AZD7762; first compound 0.05 µM) | relative viability (Temozolomide + Alpelisib; first compound 0.2 µM) | relative viability (Temozolomide + Alpelisib; first compound 0.6325 µM) | relative viability (Temozolomide + Alpelisib; first compound 2 µM) | relative viability (Temozolomide + Alpelisib; first compound 6.325 µM) | relative viability (Temozolomide + Alpelisib; first compound 20 µM) | relative viability (AZD5582 + OSI-027; first compound 0.01581 µM) | relative viability (AZD5582 + Tozasertib; first compound 0.01581 µM) |
| --- | --- | --- | --- | --- | --- | --- | --- | --- | --- | --- | --- | --- | --- | --- | --- | --- | --- |
| NCI-H1651 | 0.667 | 0.813 | 0.983 | 0.727 | 0.845 | 0.918 | 0.419 | 0.456 | 0.398 | 0.388 | 0.966 | 0.941 | 1.03 | 0.93 | 0.92 |  |  |
| LCLC-97TM1 | 0.4 | 0.567 | 0.382 | 0.206 | 0.235 | 0.187 | 0.193 | 0.221 | 0.225 | 0.154 | 0.253 | 0.236 | 0.28 | 0.246 | 0.249 | 0.496 | 0.206 |
| NCI-H1734 | 0.691 | 0.704 | 0.594 | 0.255 | 0.263 | 0.313 | 0.502 | 0.498 | 0.584 | 0.749 | 0.7 | 0.638 | 0.747 | 0.646 | 0.659 | 0.595 | 0.257 |
| NCI-H2126 | 0.709 | 0.703 | 0.607 | 0.779 | 0.698 | 0.573 | 0.981 | 0.933 | 0.896 | 0.747 | 0.703 | 0.753 | 0.799 | 0.744 | 0.752 | 0.522 | 0.806 |
| PC-3 [JPC-3] | 0.633 | 0.596 | 0.504 | 0.775 | 0.909 | 0.42 | 0.706 | 0.617 | 0.73 | 0.423 | 1.09 | 0.982 | 0.979 | 1.07 | 0.396 | 0.635 | 0.804 |
| NCI-H1993 | 0.503 | 0.541 | 0.541 | 0.599 | 0.681 | 0.567 | 0.694 | 0.867 | 0.7 | 1.03 | 0.678 | 0.734 | 0.742 | 0.693 | 0.64 | 0.547 | 0.547 |
| NCI-H2087 | 0.523 | 0.695 | 0.568 | 0.23 | 0.218 | 0.289 | 1.21 | 1.27 | 1.17 | 1.13 | 1.26 | 1.05 | 1.15 | 1.12 | 1.11 | 0.514 | 0.319 |
| HOP-62 | 0.727 | 0.837 | 0.83 | 0.318 | 0.339 | 0.32 | 0.29 | 0.395 | 0.722 | 0.508 | 1.18 | 1 | 0.896 | 0.847 | 0.814 | 0.83 | 0.35 |
| HCC-15 | 0.555 | 0.617 | 0.636 | 0.375 | 0.42 | 0.459 | 1.06 | 1.05 | 1.2 | 0.615 | 0.903 | 0.947 | 0.898 | 0.993 | 0.834 | 0.504 | 0.473 |
